“Also recorded” adds a separate entry of the source.
Legend:
[1] = tested on: multi-cellular tumor spheroids; conditions: microbubble well array based perfusion system; cited from earlier work
[2] = tested on: cutaneous squamous cell carcinoma cell colonies (SCC cells); assay: Drug resistance screen of squamous carcinoma cell colonies in microbubble well arrays, CalceinAM/PI live/dead staining; assay type: cell-based
Procedure: To enrich for the sphere cells, established colonies were cultured in the presence of a chemotherapeutic agent (e.g. Cisplatin). Traditional chemotherapeutic agents work by killing rapidly dividing cells, one of the main properties of most cancer cells. This means that chemotherapy also harms cells that divide rapidly under normal circumstances. Most chemotherapeutic drugs work by impairing mitosis (cell division), effectively targeting fast-dividing cells and inducing apoptosis. After Day 7 the cell culture media was changed and 10 uM or 10 nM cisplatin and incubated for 2 to 7 days, respectively. After which the chips were transferred into fresh media prior to a live/dead staining with CalceinAM/PI followed by stem cell marker analysis.

Structure (SMILES): COc1cccc2c1C(=O)c1c(O)c3c(c(O)c1C2=O)C[C@@](O)(C(=O)CO)C[C@@H]3O[C@H]1C[C@H](N)[C@H](O)[C@H](C)O1 [doxorubicin]
- resistance of spheroid cells versus adherent cells to treatment [1]: spheroid cells are more resistant to doxorubicin treatment than adherent cells

Structure (SMILES): N.N.[Cl][Pt][Cl] [Cisplatin]
- surviving sphere cells as share of initial cells seeded in the MB well array ([2]; 10 μM Cisplatin for 48 hr, CalceinAM (live) / propidium iodide (dead) staining, colonies from one or two cells per MB well): ~5%
- drug resistance of spheroid versus spread cell morphology (live/dead staining) ([2]; established colonies, 10 uM or 10 nM cisplatin for 2 to 7 days, respectively, CalceinAM/PI): the spheroid cells have greater resistance in response to chemo drug than the spread cell; also recorded: sphere cells exhibit drug resistance
